pIC50: −log10 of the molar value.
Assay: Inhibition of HER2 extracellular domain sheddase activity in human BT474 cells after 72 hrs by ELISA

pIC50 | SMILES
7.00 | CN1CCN(C(=O)CC2CC[C@H](C(=O)N3CCN(c4ccccc4)CC3)[C@@H](C(=O)NO)C2)CC1 (mixture of isomers) [(1S,2S,5RS)-N-hydroxy-5-(2-(4-methylpiperazin-1-yl)-2-oxoethyl)-2-(4-phenylpiperazine-1-carbonyl)cyclohexanecarboxamide]
6.65 | O=C(NO)[C@H]1CC(CC(=O)N2CC[C@@H](O)C2)CC[C@@H]1C(=O)N1CCN(c2ccccc2)CC1 (mixture of isomers) [(1S,2S,5RS)-N-hydroxy-5-(2-((R)-3-hydroxypyrrolidin-1-yl)-2-oxoethyl)-2-(4-phenylpiperazine-1-carbonyl)cyclohexanecarboxamide]
6.68 | O=C(NO)[C@H]1CC(CC(=O)N2CCOCC2)CC[C@@H]1C(=O)N1CCN(c2ccccc2)CC1 (mixture of isomers) [(1S,2S,5RS)-N-hydroxy-5-(2-morpholino-2-oxoethyl)-2-(4-phenylpiperazine-1-carbonyl)cyclohexanecarboxamide]
6.99 | CN1CC(CC(=O)N2CCCCC2)C[C@H](C(=O)NO)[C@H]1C(=O)N1CCN(c2ccccc2)CC1 (mixture of isomers) [(2S,3S,5RS)-N-hydroxy-1-methyl-5-(2-oxo-2-(piperidin-1-yl)ethyl)-2-(4-phenylpiperazine-1-carbonyl)piperidine-3-carboxamide]
7.55 | O=C(NO)[C@H]1CC(CC(=O)N2CCCC2)CN[C@@H]1C(=O)N1CCN(c2ccccc2)CC1 (mixture of isomers) [(2S,3S,5RS)-N-hydroxy-5-(2-oxo-2-(pyrrolidin-1-yl)ethyl)-2-(4-phenylpiperazine-1-carbonyl)piperidine-3-carboxamide]
7.00 | O=C(NO)[C@H]1CC2(CC[C@@H]1C(=O)N1CCN(c3ccccc3)CC1)CC2 [(5S,6S)-N-hydroxy-6-(4-phenylpiperazine-1-carbonyl)spiro[2.5]octane-5-carboxamide]

Reference: BindingDB's records for doi:10.1016/j.bmcl.2009.04.143 (Incyte, 2009)
